The structures appear in SMILES notation.

From the kinase profiling compilation of Christmann-Franck et al. (2016) come the findings set out here.

Targets include CDKL5 (human) (UniProt O76039); ABL1 (human) (UniProt P00519); GSG2 (human) (UniProt Q8TF76); WNK3 (human) (UniProt Q9BYP7); WNK1 (human) (UniProt Q9H4A3); BUB1 (human) (UniProt O43683); SGK1 (human) (UniProt O00141); RPS6KA3 KD2 (human) (UniProt P51812).
What all share (assay): KINOMEscan competition binding
Common to all, as to conditions: compound 10.0 µM

For assay [1], the system named is ABL1 (human), P00519 [Q252H].
Assay [2] concerns ABL1 (human), P00519 [T315I].

Sequence of CDKL5 (human) (O76039 whole entry, looked up): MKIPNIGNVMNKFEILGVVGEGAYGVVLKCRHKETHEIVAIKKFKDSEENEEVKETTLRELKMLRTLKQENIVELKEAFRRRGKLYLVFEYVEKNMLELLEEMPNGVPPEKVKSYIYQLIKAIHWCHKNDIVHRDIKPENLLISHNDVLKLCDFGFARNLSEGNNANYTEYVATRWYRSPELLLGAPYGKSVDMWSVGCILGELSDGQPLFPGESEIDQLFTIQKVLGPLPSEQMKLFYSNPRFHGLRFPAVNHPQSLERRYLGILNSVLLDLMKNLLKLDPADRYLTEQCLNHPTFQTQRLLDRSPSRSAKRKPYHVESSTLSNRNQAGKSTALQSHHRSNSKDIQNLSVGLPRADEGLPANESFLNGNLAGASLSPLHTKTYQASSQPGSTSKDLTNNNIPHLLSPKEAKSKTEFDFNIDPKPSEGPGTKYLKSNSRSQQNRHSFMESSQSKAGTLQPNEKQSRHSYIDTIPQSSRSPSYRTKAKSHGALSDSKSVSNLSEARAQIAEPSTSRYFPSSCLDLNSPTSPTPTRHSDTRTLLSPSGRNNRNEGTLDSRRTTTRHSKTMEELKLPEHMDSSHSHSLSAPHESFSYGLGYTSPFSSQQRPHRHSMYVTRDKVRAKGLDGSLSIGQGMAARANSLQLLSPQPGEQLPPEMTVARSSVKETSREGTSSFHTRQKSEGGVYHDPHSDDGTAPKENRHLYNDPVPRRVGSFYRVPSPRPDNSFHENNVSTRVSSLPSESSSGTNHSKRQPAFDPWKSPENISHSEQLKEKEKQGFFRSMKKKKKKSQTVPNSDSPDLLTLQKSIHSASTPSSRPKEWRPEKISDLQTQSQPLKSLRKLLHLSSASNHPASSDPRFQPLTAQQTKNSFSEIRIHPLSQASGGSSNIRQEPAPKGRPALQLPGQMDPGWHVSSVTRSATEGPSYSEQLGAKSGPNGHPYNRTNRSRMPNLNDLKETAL
Sequence of WNK1 (human) (Q9H4A3 whole entry, looked up): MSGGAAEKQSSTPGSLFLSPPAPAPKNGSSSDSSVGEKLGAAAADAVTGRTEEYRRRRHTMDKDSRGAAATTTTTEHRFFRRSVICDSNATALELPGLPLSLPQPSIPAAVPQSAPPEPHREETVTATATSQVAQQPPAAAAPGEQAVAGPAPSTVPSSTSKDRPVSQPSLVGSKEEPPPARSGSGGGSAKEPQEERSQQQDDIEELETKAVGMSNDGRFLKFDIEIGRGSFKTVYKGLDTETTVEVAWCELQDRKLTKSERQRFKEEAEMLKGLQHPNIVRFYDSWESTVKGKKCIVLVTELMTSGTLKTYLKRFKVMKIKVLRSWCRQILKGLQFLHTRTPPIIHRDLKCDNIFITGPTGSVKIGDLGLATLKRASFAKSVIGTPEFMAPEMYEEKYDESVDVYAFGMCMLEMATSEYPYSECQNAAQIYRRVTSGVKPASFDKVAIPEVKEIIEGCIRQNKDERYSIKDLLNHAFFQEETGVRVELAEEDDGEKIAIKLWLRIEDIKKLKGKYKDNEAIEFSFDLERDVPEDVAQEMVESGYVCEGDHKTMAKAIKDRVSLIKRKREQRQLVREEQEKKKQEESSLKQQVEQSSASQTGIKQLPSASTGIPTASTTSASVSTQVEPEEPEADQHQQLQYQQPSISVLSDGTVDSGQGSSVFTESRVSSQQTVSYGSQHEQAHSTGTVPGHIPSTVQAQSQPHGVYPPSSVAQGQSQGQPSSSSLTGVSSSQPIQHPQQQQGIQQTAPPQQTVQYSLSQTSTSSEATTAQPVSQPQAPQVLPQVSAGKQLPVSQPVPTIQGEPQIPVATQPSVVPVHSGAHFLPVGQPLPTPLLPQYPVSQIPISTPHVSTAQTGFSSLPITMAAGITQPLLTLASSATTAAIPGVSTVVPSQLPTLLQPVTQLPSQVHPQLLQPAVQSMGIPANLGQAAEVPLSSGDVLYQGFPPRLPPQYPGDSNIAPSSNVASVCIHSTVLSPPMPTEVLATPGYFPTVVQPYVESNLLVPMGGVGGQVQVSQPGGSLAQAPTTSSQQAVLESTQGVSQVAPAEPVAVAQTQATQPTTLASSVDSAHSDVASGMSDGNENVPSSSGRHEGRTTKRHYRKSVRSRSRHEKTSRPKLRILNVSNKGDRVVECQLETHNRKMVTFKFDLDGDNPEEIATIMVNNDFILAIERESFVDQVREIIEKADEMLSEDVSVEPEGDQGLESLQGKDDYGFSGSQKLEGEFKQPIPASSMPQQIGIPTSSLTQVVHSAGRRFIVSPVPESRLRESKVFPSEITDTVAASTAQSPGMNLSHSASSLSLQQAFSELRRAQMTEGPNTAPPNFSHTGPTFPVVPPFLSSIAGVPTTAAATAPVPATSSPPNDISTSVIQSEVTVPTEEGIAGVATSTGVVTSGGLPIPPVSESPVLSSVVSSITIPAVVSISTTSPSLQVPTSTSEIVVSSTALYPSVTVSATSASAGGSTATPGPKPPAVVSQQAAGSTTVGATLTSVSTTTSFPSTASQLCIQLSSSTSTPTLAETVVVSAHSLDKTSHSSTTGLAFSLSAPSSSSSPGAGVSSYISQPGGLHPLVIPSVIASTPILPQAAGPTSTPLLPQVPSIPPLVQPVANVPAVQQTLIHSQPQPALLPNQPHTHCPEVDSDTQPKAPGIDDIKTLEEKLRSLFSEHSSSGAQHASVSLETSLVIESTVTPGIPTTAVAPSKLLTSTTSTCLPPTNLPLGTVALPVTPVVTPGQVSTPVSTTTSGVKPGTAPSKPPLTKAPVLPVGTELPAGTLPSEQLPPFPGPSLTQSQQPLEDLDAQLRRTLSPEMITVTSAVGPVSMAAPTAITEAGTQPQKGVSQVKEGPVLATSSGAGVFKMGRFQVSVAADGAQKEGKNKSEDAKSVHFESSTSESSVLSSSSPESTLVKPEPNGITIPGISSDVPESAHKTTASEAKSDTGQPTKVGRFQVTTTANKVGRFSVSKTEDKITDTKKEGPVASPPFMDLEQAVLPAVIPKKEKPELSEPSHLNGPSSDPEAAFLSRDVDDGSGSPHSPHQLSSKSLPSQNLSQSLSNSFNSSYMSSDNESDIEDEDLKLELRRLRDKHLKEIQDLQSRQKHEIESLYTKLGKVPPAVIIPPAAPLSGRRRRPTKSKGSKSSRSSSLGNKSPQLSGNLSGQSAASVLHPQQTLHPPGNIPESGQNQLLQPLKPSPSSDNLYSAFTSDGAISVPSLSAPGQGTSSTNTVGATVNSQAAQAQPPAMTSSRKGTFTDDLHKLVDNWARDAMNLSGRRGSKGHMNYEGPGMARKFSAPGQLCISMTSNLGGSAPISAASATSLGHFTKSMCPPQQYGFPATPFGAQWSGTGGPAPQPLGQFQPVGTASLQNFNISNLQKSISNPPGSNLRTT
Sequence of RPS6KA3 KD2 (human) (P51812 whole entry, looked up): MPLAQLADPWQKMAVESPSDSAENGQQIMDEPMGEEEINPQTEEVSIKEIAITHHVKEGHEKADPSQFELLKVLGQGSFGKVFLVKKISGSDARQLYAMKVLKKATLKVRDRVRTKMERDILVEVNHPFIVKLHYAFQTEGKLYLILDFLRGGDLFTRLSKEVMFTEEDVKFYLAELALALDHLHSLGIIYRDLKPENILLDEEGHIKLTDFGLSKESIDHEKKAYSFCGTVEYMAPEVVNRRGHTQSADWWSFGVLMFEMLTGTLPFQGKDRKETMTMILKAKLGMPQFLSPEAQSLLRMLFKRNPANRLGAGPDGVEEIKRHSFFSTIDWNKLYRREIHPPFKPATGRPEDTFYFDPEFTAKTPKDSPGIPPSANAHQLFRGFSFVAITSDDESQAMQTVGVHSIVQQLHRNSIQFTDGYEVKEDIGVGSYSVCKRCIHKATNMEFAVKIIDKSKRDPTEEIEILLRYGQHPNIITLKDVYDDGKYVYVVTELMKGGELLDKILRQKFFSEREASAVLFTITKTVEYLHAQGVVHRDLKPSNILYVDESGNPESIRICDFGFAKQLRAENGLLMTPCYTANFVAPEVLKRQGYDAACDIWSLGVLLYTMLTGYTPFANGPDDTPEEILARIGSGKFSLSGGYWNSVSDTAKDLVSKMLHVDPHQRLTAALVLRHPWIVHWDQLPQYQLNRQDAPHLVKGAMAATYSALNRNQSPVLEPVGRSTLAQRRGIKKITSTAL
Sequence of SGK1 (human) (O00141 whole entry, looked up): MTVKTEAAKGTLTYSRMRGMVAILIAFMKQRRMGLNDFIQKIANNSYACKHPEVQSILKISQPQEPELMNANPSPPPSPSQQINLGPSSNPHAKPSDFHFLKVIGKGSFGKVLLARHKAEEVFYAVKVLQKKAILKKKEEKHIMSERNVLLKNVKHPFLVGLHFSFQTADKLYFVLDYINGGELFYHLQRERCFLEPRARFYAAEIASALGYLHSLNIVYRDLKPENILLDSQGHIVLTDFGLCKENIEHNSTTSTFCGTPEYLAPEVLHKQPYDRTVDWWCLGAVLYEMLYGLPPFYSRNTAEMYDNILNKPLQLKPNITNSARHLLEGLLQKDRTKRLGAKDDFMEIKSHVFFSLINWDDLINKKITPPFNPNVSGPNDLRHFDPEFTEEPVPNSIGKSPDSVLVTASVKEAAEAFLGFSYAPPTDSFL

For `COc1cc(N2CCN(C)CC2)ccc1Nc1nc(N)c(C(=O)c2c(Cl)cccc2Cl)s1`, the kinase still bound, per cent of control on CDKL5 (human) is 100%.

In turn, `O=C1Nc2ccc(I)cc2/C1=C/c1cc(Br)c(O)c(Br)c1` displayed a kinase still bound, per cent of control on CDKL5 (human) of 92%.

As to `CC[C@@H]1C(=O)N(C)c2cnc(Nc3ccc(C(=O)NC4CCN(C)CC4)cc3OC)nc2N1C1CCCC1`, the kinase still bound, per cent of control (in assay [1]; at ABL1 (human); in assay [2]) was 100% in each case.

For `CCC(=O)N1CCN(c2ccc(-n3c(=O)ccc4cnc5ccc(-c6cnc7ccccc7c6)cc5c43)cc2C(F)(F)F)CC1`, the kinase still bound, per cent of control came out at 100% on CDKL5 (human) and 60% on ABL1 (human).

`CCOc1cc2ncc(C#N)c(Nc3ccc(OCc4ccccn4)c(Cl)c3)c2cc1NC(=O)/C=C/CN(C)C`: the kinase still bound, per cent of control at CDKL5 (human) was 100%; in assay [1], 71%; on ABL1 (human) it was 100%.

For `Cc1cc([C@@H](C)Nc2ccccc2C(=O)O)c2nc(N3CCOCC3)cc(=O)n2c1`, the kinase still bound, per cent of control at CDKL5 (human) was 74%.

With `O=C(NOC[C@H](O)CO)c1ccc(F)c(F)c1Nc1ccc(I)cc1F`, the kinase still bound, per cent of control on GSG2 (human) amounted to 100%; on WNK3 (human) it was 100%; on CDKL5 (human), 67%; on WNK1 (human), 92%; at BUB1 (human), 100%; at SGK1 (human), 100%. Besides, on RPS6KA3 KD2 (human), the kinase still bound, per cent of control worked out at 100%.

`O=C(NC1CC1)c1cccc(-c2ccc3c(NC(=O)C4CC4)n[nH]c3c2)c1` had a kinase still bound, per cent of control on CDKL5 (human) of 42%.

At CDKL5 (human), `CCN1CCN(Cc2ccc(Nc3ncc4c(n3)N(C)c3ccccc3C(=O)N4C)cc2C(F)(F)F)CC1` displayed a kinase still bound, per cent of control of 100%.

As to `C=CC(=O)Nc1cccc(Nc2nc(N[C@H]3CC[C@H](N(C)C)CC3)nc3c2ncn3C(C)C)c1`, the kinase still bound, per cent of control on CDKL5 (human) amounted to 100%.

On to `Nc1ccc(-c2ccc3ncc4ccc(=O)n(-c5cccc(C(F)(F)F)c5)c4c3c2)cn1`, for which the kinase still bound, per cent of control at CDKL5 (human) was 100%.

Take `C[C@@H](Oc1cc(-n2cnc3ccc(CN4CCN(C)CC4)cc32)sc1C(N)=O)c1ccccc1C(F)(F)F`: the kinase still bound, per cent of control at CDKL5 (human) was 31%.

Regarding `Cn1c(=O)n(-c2ccc(C(C)(C)C#N)cc2)c2c3cc(-c4cnc5ccccc5c4)ccc3ncc21`, the kinase still bound, per cent of control (at CDKL5 (human); in assay [1]; at ABL1 (human); in assay [2]) was 100% in each case.

In the case of `C=CC(=O)Nc1cccc(Oc2nc(Nc3ccc(N4CCN(C)CC4)cc3OC)ncc2Cl)c1`, the kinase still bound, per cent of control (in [1]; on ABL1 (human); in assay [2]) was 100% throughout.

For the compound `COc1cc(C(=O)NC2CCN(C)CC2)ccc1Nc1ncc2c(n1)N(C1CCCC1)C(C)CC(=O)N2C` (stereo not given), the kinase still bound, per cent of control (in assay [1]; on ABL1 (human); in [2]) was 100% in each case.

Take `N#Cc1c(NC(=O)c2cccc3ccccc23)sc2c1CCCC2`: the kinase still bound, per cent of control on GSG2 (human) came out at 100%; at WNK3 (human) it was 100%; on CDKL5 (human), 70%; on WNK1 (human) it was 89%; at BUB1 (human), 100%; on SGK1 (human) it was 100%. For the same compound, on RPS6KA3 KD2 (human), the kinase still bound, per cent of control came to 100%.

At CDKL5 (human), `C=CC(=O)Nc1cc(NC(=O)c2ccc(C)c(NC(=O)c3ccno3)c2)cc(C(F)(F)F)c1` yielded a kinase still bound, per cent of control of 100%.

`CN(C)C/C=C/C(=O)Nc1cccc(Nc2ncc3c(n2)N(C)c2ccccc2C(=O)N3C)c1` had a kinase still bound, per cent of control at CDKL5 (human) of 100%.

On CDKL5 (human), `O=C(O)c1ccc(Nc2ncc3c(n2)-c2ccc(Cl)cc2C(c2c(F)cccc2F)=NC3)cc1` returned a kinase still bound, per cent of control of 100%.

In the case of `Cc1ccc(C(=O)Nc2cccc(C(F)(F)F)c2)cc1Nc1cncc(C(N)=O)c1`, the kinase still bound, per cent of control (in assay [1]; at ABL1 (human); in assay [2]) was 100% each time.

As for `CCCS(=O)(=O)Nc1ccc(F)c(C(=O)c2c[nH]c3ncc(-c4ccc(Cl)cc4)cc23)c1F`, the figures for the kinase still bound, per cent of control (at CDKL5 (human); on ABL1 (human); in assay [2]) were 100%, 57% and 79%, respectively.

In the case of `OCCCNc1cc(-c2ccnc(Nc3cccc(Cl)c3)n2)ccn1`, the kinase still bound, per cent of control was determined as 9.4% at CDKL5 (human), 100% in [1], 100% on ABL1 (human) and 100% in [2].

`Cc1ccc(NC(=O)c2cccc(C(C)(C)C#N)c2)cc1Nc1ccc2ncn(C)c(=O)c2c1` returned a kinase still bound, per cent of control at CDKL5 (human) of 93%.

For the compound `COc1cc(C(=O)NC2CCN(C)CC2)ccc1Nc1ncc2c(n1)N(C1CCCC1)CCC(=O)N2C(C)C`, the kinase still bound, per cent of control (at CDKL5 (human); in [1]; on ABL1 (human); in assay [2]) was 100% each time.

In the case of `Cc1ccc2nc(NCCN)c3ncc(C)n3c2c1`, the kinase still bound, per cent of control at CDKL5 (human) came to 46%; in [2], 100%.
